Test [1] has as its target recombinant human GSK3β (Homo sapiens, UniProt P49841). The test can be described thus: In vitro enzymatic assay for inhibition of GSK3β (Kinase-Glo Max luminescence). The test is classed as biochemical. As to conditions: 10 uM ATP, 0.1 mg/ml GSKtide, 30° C. 40 minutes, read-out: Potency Beta. On the procedure:
(§1) Enzymatic activities using recombinant human GSK3 using an in vitro enzymatic assay for inhibition GSK3α and GSK3β.
(§2) The assay was performed using Kinase-Glo Max luminescence kinase assay kit (Promega). It measures kinase activity by quantitating the amount of ATP remaining in solution following a kinase reaction. The luminescent signal from the assay is correlated with the amount of ATP present and is inversely correlated with the amount of kinase activity. The compounds were diluted in 10% DMSO and 5 μl of the dilution was added to a 50 μl reaction so that the final concentration of DMSO is 1% in all of reactions. The enzymatic reactions were conducted at 30° C. for 40 minutes. The 50 μl reaction mixture contains 40 mM Tris, pH 7.4, 10 mM MgCl2, 0.1 mg/ml BSA, 2 mM DTT, 0.1 mg/ml GSKtide substrate, 10 uM ATP and GSK3. After the enzymatic reaction, 50 μl of Kinase-Glo Max Luminescence kinase assay solution (Promega) was added to each reaction and incubate the plate for 15 minutes at room temperature. Luminescence signal was measured using a BioTek Synergy 2 microplate reader.
(§3) Kinase activity assays were performed in duplicate at each concentration. The luminescence data were analyzed using the computer software, Graphpad Prism. The difference between luminescence intensities in the absence of Kinase (Lut) and in the presence of Kinase (Luc) was defined as 100% activity (Lut−Luc). Using luminescence signal (Lu) in the presence of the compound, % activity was calculated as: % activity={(Lut−Lu)/(Lut−Luc)}×100%, where Lu=the luminescence intensity in the presence of the compound (all percent activities below zero were shown zero in the table).
(§4) The values of % activity versus a series of compound concentrations were then plotted using non-linear regression analysis of Sigmoidal dose-response curve generated with the equation Y=B+(T−B)/1+10((Log EC50−X)×Hill Slope), where Y=percent activity, B=minimum percent activity, T=maximum percent activity, X=logarithm of compound and Hill Slope=slope factor or Hill coefficient. The IC50 value was determined by the concentration causing a half-maximal percent activity.

In test [2] the test system is Lgr5-positive cells. The test can be described thus: Expansion of Lgr5-positive cells (cochlear stem cell expansion, 3D Matrigel culture, flow cytometry for Lgr5-GFP). It is filed as cell-based, mouse. As to conditions: for EC50: Mus musculus, 240 h, Lgr5-positive cell expansion, cochlear cells of neonatal Lgr5-EGFP-IRES-Cre-ER mice, 10 days in culture, read-out: Potency; for % of Cells: percentage of Lgr5-GFP-positive cells after 10 days (D10) in culture, flow cytometer. On the procedure:
Lgr5-EGFP-IRES-Cre-ER mice (Barker et al., 2007) (http://jaxmice.jax.org/strain/008875.html) are used to analyze the effects of small molecules on cochlear stem cell expansion.
Isolation of stem cells from the inner ear: All animal studies are conducted under an approved institutional protocol according to National Institutes of Health guidelines. For experiments with neonatal mice (postnatal days 1-3), the cochleae are dissected in HBSS and the organ of Corti are separated from the stria vascularis and the modiolus. The organs of Corti are then treated with Cell Recovery Solution (Corning) for 1 h to separate cochlear epithelium from the underlying mesenchyme. Epithelia are then collected and treated with TrypLE (Life Technologies) for 15-20 minutes at 37° C. Single cells obtained by mechanical trituration are filtered (40 μm) and suspended in Matrigel (Corning) for 3D culture.
Cells are cultured in a 1:1 mixture of DMEM and F12, supplemented with Glutamax (GIBCO), N2, B27 (Invitrogen), EGF (50 ng/ml; Chemicon), bFGF (50 ng/ml; Chemicon), IGF1 (50 ng/ml; Chemicon) and the composition provided herein. Media are changed every other day.
Lgr5-positive cells are quantified after 10 days (D10) in culture in multiple conditions. Cell colonies are dissociated into single cells using TrypLE (Gibco). The cells are then stained with propidium iodide (PI) and are analyzed using a flow cytometer for Lgr5-GFP expression. The number of GFP-positive cells and the percentage of GFP-positive cells are quantified.
(In general: A flow cytometer gives signals particle by particle.)

Test [3] has as its target recombinant human GSK3α (Homo sapiens, UniProt P49840). The test can be described thus: In vitro enzymatic assay for inhibition of GSK3α (Kinase-Glo Max luminescence). The settings on record: 10 uM ATP, 0.1 mg/ml GSKtide, 30° C. 40 minutes, read-out: Potency Alpha. The test is classed as biochemical. On the procedure:
as §1, §2, §3, §4
(In general: In Kinase-Glo more light means more ATP remaining.)

This note sets out measurements from US11066419B2, “1H-pyrrole-2,5-dione compounds and methods of using same” (Frequency Therapeutics, Inc., priority 2016, dated 2021).

Chain of recombinant human GSK3β (P49841 whole entry): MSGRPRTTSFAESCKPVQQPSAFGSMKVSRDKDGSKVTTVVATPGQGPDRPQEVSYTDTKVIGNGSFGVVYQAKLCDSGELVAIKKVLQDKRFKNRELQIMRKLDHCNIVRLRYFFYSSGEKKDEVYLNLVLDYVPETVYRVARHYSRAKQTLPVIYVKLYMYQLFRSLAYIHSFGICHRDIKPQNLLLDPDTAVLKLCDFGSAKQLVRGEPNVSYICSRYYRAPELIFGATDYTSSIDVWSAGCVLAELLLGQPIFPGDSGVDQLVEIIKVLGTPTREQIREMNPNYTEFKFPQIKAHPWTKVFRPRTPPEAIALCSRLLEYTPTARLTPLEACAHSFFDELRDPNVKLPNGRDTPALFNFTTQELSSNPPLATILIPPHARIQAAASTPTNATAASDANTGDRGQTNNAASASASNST
Chain of recombinant human GSK3α (P49840 whole entry): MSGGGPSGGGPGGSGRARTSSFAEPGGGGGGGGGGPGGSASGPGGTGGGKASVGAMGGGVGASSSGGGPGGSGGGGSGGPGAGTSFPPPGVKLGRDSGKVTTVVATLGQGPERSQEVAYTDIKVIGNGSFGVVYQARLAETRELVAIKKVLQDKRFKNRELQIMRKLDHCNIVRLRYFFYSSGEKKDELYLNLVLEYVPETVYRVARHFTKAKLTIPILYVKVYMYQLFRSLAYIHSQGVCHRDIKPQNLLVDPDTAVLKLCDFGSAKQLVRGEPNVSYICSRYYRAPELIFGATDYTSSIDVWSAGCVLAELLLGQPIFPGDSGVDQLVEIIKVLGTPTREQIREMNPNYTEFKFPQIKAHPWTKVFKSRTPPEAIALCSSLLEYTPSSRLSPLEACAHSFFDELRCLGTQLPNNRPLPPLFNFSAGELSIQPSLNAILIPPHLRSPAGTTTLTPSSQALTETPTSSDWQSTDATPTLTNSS

In the case of `O=C1NC(=O)C(c2cnc3ccccn23)=C1c1cn2c3c(cc(C(F)(F)F)cc13)CN(C(=O)N1CCOCC(F)(F)C1)CC2` [Compound I-44], the IC50 in test [1] and in test [3] was 1 to 10 nM each time. Also, in test [2], the EC50 lay in the range of 100 to 1000 nM. In addition, the “% of Cells” value in test [2] was “+++ (“+++” indicates greater than about 11%)”.
As for `CN1CCC2(CCN(C(=O)N3CCn4cc(C5=C(c6cnc7ccccn67)C(=O)NC5=O)c5cc(F)cc(c54)C3)CC2)C1` [Compound I-41], the IC50 in test [1] and in test [3] was 1 to 10 nM throughout. The EC50 in test [2] is above 1000 nM. The “% of Cells” value in test [2] is recorded as “+++ (“+++” indicates greater than about 11%)”.
On to `N#Cc1cc2c3c(c1)c(C1=C(c4cnc5ccccn45)C(=O)NC1=O)cn3CCN(C(=O)N1CCC(CO)CC1)C2` [Compound I-21], for which the IC50 in test [1] was in the range of 1 to 10 nM. In test [2], the EC50 was above 1000 nM and the “% of Cells” value is “+++ (“+++” indicates greater than about 11%)”. The IC50 in test [3] was in the range of 1 to 10 nM.
With `CN(CC1CCNCC1)C(=O)N1CCn2cc(C3=C(c4cnc5ccccn45)C(=O)NC3=O)c3cc(F)cc(c32)C1` [Compound I-38], the IC50 in test [1] and in test [3] was 1 to 10 nM throughout. In addition, the EC50 in test [2] was above 1000 nM. For the same compound, the “% of Cells” value in test [2] is listed as “+ (“+” indicates about 0-5%)”.
`O=C1NC(=O)C(c2cnc3ccccn23)=C1c1cn2c3c(cc(F)cc13)CN(C(=O)N1CCC(CO)CC1)CC2` [Compound I-6]: the IC50 in test [1] fell in the range of 1 to 10 nM. Moreover, in test [2], the EC50 lay in the range of 1 to 100 nM and the “% of Cells” value is reported as “+++ (“+++” indicates greater than about 11%)”. Besides, in test [3], the IC50 fell in the range of 1 to 10 nM.
As to `CC(=O)Nc1cc2c3c(c1)c(C1=C(c4cnc5ccccn45)C(=O)NC1=O)cn3CCN(C(=O)N1CCCCC1)C2` [Compound I-10], the IC50 in test [1] and in test [3] was 1 to 10 nM in each case. In addition, the EC50 in test [2] was above 1000 nM. Further, the “% of Cells” value in test [2] is reported as “+ (“+” indicates about 0-5%)”.
On to `N#Cc1cc2c3c(c1)c(C1=C(c4cnc5ccccn45)C(=O)NC1=O)cn3CCN(C(=O)N1CCC(F)(F)CC1)C2` [Compound I-16], for which the IC50 in test [1] was 1 to 10 nM. In addition, in test [2], the EC50 fell in the range of 100 to 1000 nM and the “% of Cells” value is recorded as “+++ (“+++” indicates greater than about 11%)”. Moreover, in test [3], the IC50 lay within 1 to 10 nM.
In the case of `O=C1NC(=O)C(c2cnc3ccccn23)=C1c1cn2c3c(cc(F)cc13)CN(C(=O)N1CCOCC(F)(F)C1)CC2` [Compound I-27], the IC50 in test [1] and in test [3] was 1 to 10 nM in each case. In test [2], the EC50 fell in the range of 1 to 100 nM. In addition, the “% of Cells” value in test [2] is on record as “+++ (“+++” indicates greater than about 11%)”.
Turning to `O=C1NC(=O)C(c2cn3c4c(cc(F)cc24)CN(C(=O)N2CCCCC2)CC3)=C1c1noc2ccccc12` [Compound I-9], the IC50 in test [1] fell in the range of 1 to 10 nM; in test [3] it was 10 to 100 nM. Besides, in test [2], the EC50 is above 1000 nM. The “% of Cells” value in test [2] is “+++ (“+++” indicates greater than about 11%)”.
Taken in the same sequence, the figures for `O=C1NC(=O)C(c2cnc3ccccn23)=C1c1cn2c3c(cc(C(F)(F)F)cc13)CN(C(=O)N1CCC(F)(F)CC1)CC2` [Compound I-17] were 1 to 10 nM, 1 to 10 nM, above 1000 nM and “+ (“+” indicates about 0-5%)”.
Taken in the same sequence, the figures for `O=C1NC(=O)C(c2cnc3ccccn23)=C1c1cn2c3c(cc(F)c(F)c13)CN(C(=O)N1CCCCC1)CC2` [Compound I-48] were 1 to 10 nM, 1 to 10 nM, 1 to 100 nM and “++ (“++” indicates about 6-10%)”.
`N#Cc1cc2c3c(c1)c(C1=C(c4cnc5ccccn45)C(=O)NC1=O)cn3CCN(C(=O)N1CCCC(F)(F)C1)C2` [Compound I-15]: the IC50 in test [1] was in the range of 1 to 10 nM. For the same compound, in test [2], the EC50 was above 1000 nM and the “% of Cells” value is listed as “++ (“++” indicates about 6-10%)”. Further, the IC50 in test [3] was 1 to 10 nM.
`C#Cc1cc2c3c(c1)c(C1=C(c4cnc5ccccn45)C(=O)NC1=O)cn3CCN(C(=O)N1CCCCC1)C2` [Compound I-3]: the IC50 in test [1] and in test [3] was 1 to 10 nM each time. The EC50 in test [2] is 1 to 100 nM. Moreover, in test [2], the “% of Cells” value is reported as “+++ (“+++” indicates greater than about 11%)”.
For the compound `O=C1NC(=O)C(c2cnc3ccccn23)=C1c1cn2c3c(cc(C(F)(F)F)cc13)CN(C(=O)N1CC(F)(F)OC(F)(F)C1)CC2` [Compound I-43], the IC50 in test [1] lay within 1 to 10 nM. In addition, in test [2], the EC50 is 100 to 1000 nM and the “% of Cells” value is “+++ (“+++” indicates greater than about 11%)”. The IC50 in test [3] fell in the range of 1 to 10 nM.
Regarding `CNC1CCN(C(=O)N2CCn3cc(C4=C(c5cnc6ccccn56)C(=O)NC4=O)c4cc(F)cc(c43)C2)CC1` [Compound I-35], the IC50 in test [1] and in test [3] was 1 to 10 nM each time. Besides, the EC50 in test [2] was above 1000 nM. Besides, the “% of Cells” value in test [2] is given as “+ (“+” indicates about 0-5%)”.
As to `O=C1NC(=O)C(c2cnc3ccccn23)=C1c1cn2c3c(cc(F)cc13)CN(C(=O)N1CC(F)(F)OC(F)(F)C1)CC2` [Compound I-24], the IC50 in test [1] was 1 to 10 nM. In test [2], the EC50 was in the range of 1 to 100 nM and the “% of Cells” value is reported as “++ (“++” indicates about 6-10%)”. Further, in test [3], the IC50 lay in the range of 1 to 10 nM.
